Measurements from patent US20250368662A1, “INHIBITORS OF INDOLEAMINE 2,3-DIOXYGENASE 1 (IDO1) AND TRYPTOPHAN 2,3-DIOXYGENASE (TDO) AND METHODS OF USING SAME” (University of South Carolina, priority 2024, published 2025).

Tested on: EO771 cells
Assay: Mouse model of breast cancer (EO771 cells in mammary fat pads)
Type: in vivo
Conditions: female C57Bl/6 mice, i.p. 10 mg/kg every other day for 3 weeks
Text: In a mouse model of breast cancer, 8-week-old female C57Bl/6 mice were inoculated with EO771 cells in the 4th pair of mammary fat pads. […] Mice were sacrificed 24 days after cell inoculation.

Structure (SMILES): O=C(NCCCCC1CN2C(c3ccc4ccccc4c3)=CSC2=N1)Nc1ccccc1 (centres unmarked) [USCYL01]
- body weight: did not affect
- weights of the heart, liver, lungs, kidney, brain, and lymph nodes: did not affect
